The values that follow are results of earlier work, collected in patent publication US20030003095A1, “Activated carbon for preventing pregnancy and sexually transmitted disease” (The Procter & Gamble Company, priority 2002, published 2003).

The conditions of this data set: stated in words, no test described.
For the compound `Oc1cc(Cl)ccc1Oc1ccc(Cl)cc1Cl` [triclosan], the water solubility result is recorded as “water insoluble”.
Consider `N=C(NCCCCCCNC(=N)NC(=N)Nc1ccc(Cl)cc1)NC(=N)Nc1ccc(Cl)cc1.O=C(O)[C@H](O)[C@@H](O)[C@H](O)[C@H](O)CO.O=C(O)[C@H](O)[C@@H](O)[C@H](O)[C@H](O)CO` [chlorhexidene digluconate], for which the water solubility result is “water-soluble”.
Regarding nonoxynol-9, the water solubility result was “slightly water soluble”.
